Tests used:
Format in all cases: biochemical
[1] = target: T1, cytochrome bd (G. thermodenitrificans) (Geobacillus stearothermophilus, UniProt Q9Z9N1); assay: O2 consumption inhibition, Clark-type electrode; settings: menaquinol-1 substrate (200 μM quinone, 10 mM DTT); 0.025% DDM, pH 7.5, 37 °C; no cardiolipin
T1 construct: gene cbdA; CbdAB expressed from pSTE-cbdAB in G. thermodenitrificans K1041, purified from membranes in MEGA9+10
T1 sequence (Q9Z9N1 1-448): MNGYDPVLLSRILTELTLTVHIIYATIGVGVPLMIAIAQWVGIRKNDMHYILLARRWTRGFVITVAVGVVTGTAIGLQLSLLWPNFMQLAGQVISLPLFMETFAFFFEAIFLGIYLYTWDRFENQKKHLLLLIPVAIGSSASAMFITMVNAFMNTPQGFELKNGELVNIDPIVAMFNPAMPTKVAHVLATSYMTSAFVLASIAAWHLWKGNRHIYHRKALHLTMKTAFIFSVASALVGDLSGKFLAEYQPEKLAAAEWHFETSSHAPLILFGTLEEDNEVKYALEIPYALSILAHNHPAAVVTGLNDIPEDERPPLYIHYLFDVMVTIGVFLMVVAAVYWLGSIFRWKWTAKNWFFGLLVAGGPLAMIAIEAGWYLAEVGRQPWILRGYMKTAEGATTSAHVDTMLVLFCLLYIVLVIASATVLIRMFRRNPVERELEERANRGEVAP
T1 sequence (Q9Z9N0 1-342 partner): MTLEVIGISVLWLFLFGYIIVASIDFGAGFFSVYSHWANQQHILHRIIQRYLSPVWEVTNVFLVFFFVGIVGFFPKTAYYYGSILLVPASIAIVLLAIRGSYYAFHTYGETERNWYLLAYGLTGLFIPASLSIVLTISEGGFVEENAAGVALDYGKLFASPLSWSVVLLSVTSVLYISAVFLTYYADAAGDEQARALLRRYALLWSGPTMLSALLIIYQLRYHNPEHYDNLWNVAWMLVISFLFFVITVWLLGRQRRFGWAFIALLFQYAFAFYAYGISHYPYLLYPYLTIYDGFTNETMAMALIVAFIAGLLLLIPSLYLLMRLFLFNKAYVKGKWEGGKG

[2] = target: T2, cytochrome bd (C. glutamicum) (Corynebacterium glutamicum, UniProt Q9KWL8); assay: O2 consumption inhibition, Clark-type electrode; settings: menaquinol-1 substrate (200 μM quinone, 10 mM DTT); 0.025% DDM, pH 7.5, 37 °C; no cardiolipin
T2 construct: gene cydA; expressed from pPC4-cydABDC in C. glutamicum delta-ctaD, purified from membranes in DDM (CydD and CydC are not oxidase subunits)

[3] = target: T2, cytochrome bd (C. glutamicum); assay: O2 consumption, Clark-type electrode; settings: 200 μM quinone, 10 mM DTT; 0.025% DDM, pH 7.5, 37 °C; no cardiolipin
[4] = target: T1, cytochrome bd (G. thermodenitrificans); assay: O2 consumption, Clark-type electrode; settings: 200 μM quinone, 10 mM DTT; 0.025% DDM, pH 7.5, 37 °C; no cardiolipin
[5] = target: T3, cytochrome bd (E. coli) (Escherichia coli, UniProt P0ABJ9); assay: O2 consumption activation, Clark-type electrode; settings: activator; bovine heart lipid, mixed acyl chains (primarily linoleic acid); ubiquinol-1 substrate; 0.025% DDM, pH 7.5, 37 °C
T3 construct: gene cydA; CydABX complex, Strep-tag, expressed in E. coli MB43, streptactin-purified in DDM
T3 sequence (P0ABJ9 1-522): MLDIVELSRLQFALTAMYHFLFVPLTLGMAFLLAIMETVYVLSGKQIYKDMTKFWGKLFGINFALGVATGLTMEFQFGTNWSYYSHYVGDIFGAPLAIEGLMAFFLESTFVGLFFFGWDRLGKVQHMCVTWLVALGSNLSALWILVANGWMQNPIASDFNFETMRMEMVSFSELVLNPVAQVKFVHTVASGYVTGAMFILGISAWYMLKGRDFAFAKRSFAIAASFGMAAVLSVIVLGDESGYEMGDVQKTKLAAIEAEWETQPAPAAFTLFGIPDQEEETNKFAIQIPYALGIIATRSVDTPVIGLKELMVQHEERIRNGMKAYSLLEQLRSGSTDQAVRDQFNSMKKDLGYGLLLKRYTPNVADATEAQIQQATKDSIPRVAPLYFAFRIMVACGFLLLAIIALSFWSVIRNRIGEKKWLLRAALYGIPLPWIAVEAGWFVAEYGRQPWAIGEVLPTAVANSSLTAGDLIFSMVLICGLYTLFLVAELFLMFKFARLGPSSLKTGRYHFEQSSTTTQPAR
T3 sequence (P0ABK2 1-379 partner): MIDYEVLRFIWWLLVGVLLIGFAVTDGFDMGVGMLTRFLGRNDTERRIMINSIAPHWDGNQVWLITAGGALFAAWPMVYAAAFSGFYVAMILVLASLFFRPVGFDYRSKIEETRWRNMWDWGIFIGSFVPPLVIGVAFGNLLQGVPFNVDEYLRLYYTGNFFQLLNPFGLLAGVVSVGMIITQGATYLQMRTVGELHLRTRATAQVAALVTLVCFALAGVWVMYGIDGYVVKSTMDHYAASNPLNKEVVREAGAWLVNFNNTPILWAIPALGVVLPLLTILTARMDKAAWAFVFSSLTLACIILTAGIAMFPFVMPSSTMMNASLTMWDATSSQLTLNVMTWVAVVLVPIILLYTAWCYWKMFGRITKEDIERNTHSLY
T3 sequence (P56100 1-37 partner): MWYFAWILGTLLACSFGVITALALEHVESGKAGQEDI
Source text: O2 consumption activation, Clark-type electrode on cytochrome bd (E. coli) | We examined the effect of CL and observed ~ twofold activation of the oxygen consumption activity

CC(C)=CCC/C(C)=C/CC/C(C)=C/Cc1c(C)[nH]c2ccccc2c1=O [aurachin D]
inhibition at 400 nM [1]: G. thermodenitrificans cytochrome bd was sensitive to inhibition by aurachin D | inhibition at 400 nM [2]: oxygen consumption activity in the presence and absence of CL was sensitive to inhibition by aurachin D

CC(C)=CCc1c(C)c(O)c2ccccc2c1O [menaquinol-1]
O2 consumption, Clark-type electrode [3]: using menaquinol-1 instead of ubiquinol-1 as substrate | O2 consumption, Clark-type electrode [4]: using menaquinol-1 instead of ubiquinol-1 as substrate

cardiolipin [CL]
fold activation at 10 μM [5]: ~ 2 fold

From publication PMC8044227, “Cardiolipin enhances the enzymatic activity of cytochrome bd and cytochrome bo3 solubilized in dodecyl-maltoside” (Scientific Reports, 2021)
